Results on 41 compounds are retold here after patent publication US9656971B2, “COMT inhibitors” (Hoffmann-La Roche Inc., priority 2012, dated 2017).

Where a name gives a salt, the structure may show the parent alone. Read-outs that look alike come from different tables or passages of the source.

This test has as its target T1, Rec. human COMT (Homo sapiens, UniProt P21964).
T1 sequence (P21964 1-271): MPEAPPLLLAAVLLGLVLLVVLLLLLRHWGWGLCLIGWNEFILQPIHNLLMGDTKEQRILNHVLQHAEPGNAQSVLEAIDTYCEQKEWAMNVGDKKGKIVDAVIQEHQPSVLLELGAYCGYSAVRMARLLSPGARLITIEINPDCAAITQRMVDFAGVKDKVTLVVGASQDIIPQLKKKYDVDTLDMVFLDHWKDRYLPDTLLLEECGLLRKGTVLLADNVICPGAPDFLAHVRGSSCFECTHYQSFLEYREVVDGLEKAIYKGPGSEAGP
Briefly: COMT-Fluorescence Assay. It is filed as biochemical. To be noted: rec. human COMT 25 nM, 4-Nitrocatechol-Alexa488 200 nM, SAM 500 nM. As to the method: This intramolecular interaction is disturbed if the 4-Nitrocatechol is methylated. […] This increase of fluorescence intensity can be followed in a kinetic measurement. The slope in the linear range of the kinetic is calculated. An inhibitor compound decreases the slope.
Signal [rfu/min]=(rfu(end-point)−rfu(startpoint))/incubation_time_#2

Where [1] appears, read: COMT-fluorescence assay, read-out: IC50.

The IC50 is the point on the concentration scale where inhibition reaches its midpoint. Turning to `O=c1[nH]cnc2c(O)cc(-c3ccc4c(c3)OCCO4)cc12` [Example 176, 6-(2,3-Dihydrobenzo[b][1,4]dioxin-6-yl)-8-hydroxyquinazolin-4(3H)-one], the IC50 under setting [1] worked out at 20 nM.

For the compound `O=c1[nH]cnc2c(O)cc(-c3ccc(N4CCNCC4)nc3)cc12` [Example 184, 8-Hydroxy-6-(6-(piperazin-1-yl)pyridin-3-yl)quinazolin-4(3H)-one], under setting [1], the concentration for half-maximal inhibition (IC50) worked out at 20 nM.

On to `Cn1ncc2cc(-c3cc(O)c4nc[nH]c(=O)c4c3)ccc21` [Example 96, 8-Hydroxy-6-(1-methyl-1H-indazol-5-yl)quinazolin-4(3H)-one], for which the IC50 under setting [1] is 30 nM.

Take `CN1CCN(S(=O)(=O)c2cccc(-c3cc(O)c4nc[nH]c(=O)c4c3)c2)CC1` [Example 111, 8-Hydroxy-6-[3-(4-methyl-piperazine-1-sulfonyl)-phenyl]-3#H!-quinazolin-4-one; compound with trifluoro-acetic acid]: the IC50 under setting [1] worked out at 20 nM.

For `Cc1cccc(Cc2cc(O)c3nc[nH]c(=O)c3c2)c1` [Example 12, 8-Hydroxy-6-(3-methylbenzyl)quinazolin-4(3H)-one], the concentration for half-maximal inhibition (IC50) under setting [1] was 1470 nM.

With `O=c1[nH]cnc2c(O)cc(-c3ccccc3COCCN3CCN(CC(F)(F)F)CC3)cc12` [Example 121, 8-Hydroxy-6-(2-((2-(4-(2,2,2-trifluoroethyl)piperazin-1-yl)ethoxy)methyl)phenyl)quinazolin-4(3H)-one 2,2,2-trifluoroacetate], the 50% inhibitory concentration (IC50) under setting [1] came to 30 nM.

In the case of `O=c1[nH]cnc2c(O)ccc(Cl)c12` [Example 143, 5-Chloro-8-hydroxyquinazolin-4(3H)-one], under setting [1], the IC50 is 810 nM.

Consider `O=C(NCC(F)(F)C(F)(F)F)c1cc(O)c2nc[nH]c(=O)c2c1` [Example 4, 8-Hydroxy-4-oxo-N-(2,2,3,3,3-pentafluoropropyl)-3,4-dihydroquinazoline-6-carboxamide], for which, under setting [1], the concentration for half-maximal inhibition (IC50) was found to be 170 nM.

`COc1ccccc1-c1cc(O)c2nc[nH]c(=O)c2c1` [Example 161, 8-Hydroxy-6-(2-methoxyphenyl)quinazolin-4(3H)-one]: the concentration for half-maximal inhibition (IC50) under setting [1] worked out at 50 nM.

Consider `O=c1[nH]cnc2c(O)cc(C3=CCOCC3)cc12` [Example 70, 6-(3,6-Dihydro-2H-pyran-4-yl)-8-hydroxyquinazolin-4(3H)-one], for which the IC50 under setting [1] amounted to 20 nM.

Take `O=c1[nH]cnc2c(O)cc(-c3ccc4c(c3)CCNC4)cc12` [Example 171, 8-Hydroxy-6-(1,2,3,4-tetrahydroisoquinolin-6-yl)quinazolin-4(3H)-one]: the 50% inhibitory concentration (IC50) under setting [1] was determined as 80 nM.

Turning to `COCc1cc(CN2CCN(C(C)C)CC2)ccc1-c1cc(O)c2nc[nH]c(=O)c2c1` [Example 107, 8-Hydroxy-6-(4-((4-isopropylpiperazin-1-yl)methyl)-2-(methoxymethyl)phenyl)quinazolin-4(3H)-one tetrakis(2,2,2-trifluoroacetate)], the IC50 under setting [1] was 20 nM.

Regarding `CS(=O)(=O)CCc1ccccc1-c1cc(O)c2nc[nH]c(=O)c2c1` [Example 116, 8-Hydroxy-6-(2-(2-(methylsulfonyl)ethyl)phenyl)quinazolin-4(3H)-one 2,2,2-trifluoroacetate], the IC50 under setting [1] worked out at 180 nM.

As to `Cc1cc(C(=O)N2CCCCC2)sc1-c1cc(O)c2nc[nH]c(=O)c2c1` [Example 97, 8-Hydroxy-6-(3-methyl-5-(piperidine-1-carbonyl)thiophen-2-yl)quinazolin-4(3H)-one], under setting [1], the IC50 was determined as 10 nM.

In the case of `CS(=O)(=O)c1cccc(-c2c(-c3ccc(F)cc3)cc(O)c3nc[nH]c(=O)c23)c1` [Example 52, 6-(4-Fluorophenyl)-8-hydroxy-5-(3-(methylsulfonyl)phenyl)quinazolin-4(3H)-one], under setting [1], the half-maximal inhibitory concentration (IC50) amounted to 10 nM.

As to `Cn1cc(-c2cc(O)c3nc[nH]c(=O)c3c2)cn1` [Example 179, 8-Hydroxy-6-(1-methyl-1H-pyrazol-4-yl)quinazolin-4(3H)-one], the IC50 under setting [1] came out at 90 nM.

Turning to `COc1ccc(C(F)(F)F)cc1-c1cc(O)c2nc[nH]c(=O)c2c1` [Example 26, 8-Hydroxy-6-(2-methoxy-5-(trifluoromethyl)phenyl)quinazolin-4(3H)-one], the 50% inhibitory concentration (IC50) under setting [1] was determined as 190 nM.

As to `O=c1[nH]cnc2c(O)cc(-c3ccc4c(c3)OCC4)cc12` [Example 25, 6-(2,3-Dihydrobenzofuran-6-yl)-8-hydroxyquinazolin-4(3H)-one], for the setting “IC50, COMT-fluorescence assay”, half-maximal inhibition (IC50) was put at 20 nM.

With `CC(C)N(C(=O)c1ccccc1-c1cc(O)c2nc[nH]c(=O)c2c1)C(C)C` [Example 226, 2-(8-Hydroxy-4-oxo-3,4-dihydroquinazolin-6-yl)-N,N-diisopropylbenzamide], under setting [1], the half-maximal inhibitory concentration (IC50) came to 1030 nM.

As to `Cc1c(-c2cc(O)c3nc[nH]c(=O)c3c2)c(C(F)(F)F)nn1C` [Example 95, 6-(1,5-Dimethyl-3-(trifluoromethyl)-1H-pyrazol-4-yl)-8-hydroxyquinazolin-4(3H)-one], the IC50 under setting [1] came out at 970 nM.

For `CCCCOc1ccccc1-c1cc(O)c2nc[nH]c(=O)c2c1` [Example 228, 6-(2-Butoxyphenyl)-8-hydroxyquinazolin-4(3H)-one], the IC50 under setting [1] was 50 nM.

For the compound `O=C(c1cccnc1)c1cc(O)c2nc[nH]c(=O)c2c1` [Example 74, 8-Hydroxy-6-nicotinoylquinazolin-4(3H)-one], the IC50 under setting [1] worked out at 250 nM.

Regarding `COC(=O)C(C)c1ccc(-c2ccccc2)c(-c2cc(O)c3nc[nH]c(=O)c3c2)c1` (racemic) [Example 32, (rac.) Methyl 2-(2-(8-hydroxy-4-oxo-3,4-dihydroquinazolin-6-yl)biphenyl-4-yl)propanoate], the half-inhibitory concentration (IC50) under setting [1] is 2000 nM.

Turning to `CSc1ccccc1-c1cc(O)c2nc[nH]c(=O)c2c1` [Example 223, 8-Hydroxy-6-(2-(methylthio)phenyl)quinazolin-4(3H)-one], under setting [1], the IC50 is 20 nM.

Turning to `CN1CCC(CCOCc2ccccc2-c2cc(O)c3nc[nH]c(=O)c3c2)CC1` [Example 256, 8-Hydroxy-6-(2-((2-(1-methylpiperidin-4-yl)ethoxy)methyl)phenyl)quinazolin-4(3H)-one], the IC50 under setting [1] stood at 36 nM.

As to `Cc1ncc(-c2cc(O)c3nc[nH]c(=O)c3c2)n1C` [Example 87, 6-(1,2-Dimethyl-1H-imidazol-5-yl)-8-hydroxyquinazolin-4(3H)-one], the IC50 under setting [1] amounted to 230 nM.

Regarding `COc1ncccc1-c1cc(O)c2nc[nH]c(=O)c2c1` [Example 162, 8-Hydroxy-6-(2-methoxypyridin-3-yl)quinazolin-4(3H)-one], under setting [1], the concentration for half-maximal inhibition (IC50) was 30 nM.

In the case of `O=c1[nH]cnc2c(O)cc(C(O)c3ccccc3)cc12` (centres unmarked) [Example 67, 8-Hydroxy-6-(hydroxy(phenyl)methyl)quinazolin-4(3H)-one], under setting [1], the IC50 came out at 7450 nM.

Consider `COc1cccc(Cc2cc(O)c3nc[nH]c(=O)c3c2)c1` [Example 15, 8-Hydroxy-6-(3-methoxybenzyl)quinazolin-4(3H)-one], for which, under setting [1], the IC50 came out at 1200 nM.

As for `O=c1[nH]cnc2c(O)c(Br)c(-c3ccc(F)cc3)c(Br)c12` [Example 34, 5,7-Dibromo-6-(4-fluorophenyl)-8-hydroxyquinazolin-4(3H)-one], the concentration for half-maximal inhibition (IC50) under setting [1] came out at 170 nM.

As for `CC(C)N(Cc1ccccc1-c1cc(O)c2nc[nH]c(=O)c2c1)C(C)C` [Example 218, 6-(2-((Diisopropylamino)methyl)phenyl)-8-hydroxyquinazolin-4(3H)-one], the IC50 under setting [1] amounted to 1400 nM.

Consider `O=c1[nH]cnc2c(O)cc(-c3ccccc3COCCN3CCCC3)cc12` [Example 238, 8-Hydroxy-6-(2-((2-(pyrrolidin-1-yl)ethoxy)methyl)phenyl)quinazolin-4(3H)-one], for which, under setting [1], the IC50 turned out to be 30 nM.

With `O=c1[nH]cnc2c(O)cc(I)cc12` [Example 137, 8-Hydroxy-6-iodo-3H-quinazolin-4-one], under setting [1], the half-inhibitory concentration (IC50) turned out to be 60 nM.

In the case of `O=c1[nH]cnc2c(O)cc(-c3ccc(Cl)cc3)cc12` [Example 131, 6-(4-Chlorophenyl)-8-hydroxyquinazolin-4(3H)-one], the IC50 (IC50, COMT-fluorescence assay) was 40 nM.

For `O=c1[nH]cnc2c(O)cc(C3=Cc4ccccc4CC3)cc12` [Example 7, 6-(3,4-Dihydro-naphthalen-2-yl)-8-hydroxy-3H-quinazolin-4-one], the IC50 under setting [1] is 10 nM.

`CCc1cc(O)c2nc[nH]c(=O)c2c1` [Example 10, 6-Ethyl-8-hydroxyquinazolin-4(3H)-one 2,2,2-trifluoroacetate] came in with a concentration for half-maximal inhibition (IC50) (IC50, COMT-fluorescence assay) of 1090 nM.

Take `O=c1[nH]cnc2c(O)cc(-c3ccc(F)cc3)c([N+](=O)[O-])c12` [Example 252, 6-(4-Fluoro-phenyl)-8-hydroxy-5-nitro-3H-quinazolin-4-one]: under setting [1], the half-inhibitory concentration (IC50) came to 30 nM.

With `Cc1ccc(-c2ccc(C(F)(F)F)cc2)c(-c2cc(O)c3nc[nH]c(=O)c3c2)c1` [Example 30, 8-Hydroxy-6-(4-methyl-4′-(trifluoromethyl)biphenyl-2-yl)quinazolin-4(3H)-one], under setting [1], the IC50 was found to be 1400 nM.

In the case of `O=c1[nH]cnc2c(O)cc(-c3cccc(CN4CCOCC4)c3)cc12` [Example 39, 8-Hydroxy-6-(3-(morpholinomethyl)phenyl)quinazolin-4(3H)-one 1:1 salt with trifluoroacetate], under setting [1], the half-maximal inhibitory concentration (IC50) worked out at 20 nM.

On to `COc1ccc(C(C)(C)C)cc1-c1cc(O)c2nc[nH]c(=O)c2c1` [Example 35, 6-(5-tert-Butyl-2-methoxyphenyl)-8-hydroxyquinazolin-4(3H)-one], for which the IC50 under setting [1] came to 1300 nM.

As for `Cc1cc(-c2c(-c3ccc(F)cc3)cc(O)c3nc[nH]c(=O)c23)ccn1` [Example 58, 6-(4-Fluorophenyl)-8-hydroxy-5-(2-methylpyridin-4-yl)quinazolin-4(3H)-one], the half-inhibitory concentration (IC50) under setting [1] worked out at 10 nM.
